Earlier results, collected in patent US8759032B2, “Genetically engineered strain WSJ-IA for producing isovaleryl spiramycin I” (Shen Yang Tonglian Group Co., Ltd., priority 2010, dated 2014).

Conditions: single components; no significant differences in their activities; patent application 201010119745.1

Row | Compound | antibiotic activities
1 | CCC(=O)O[C@@H]1CC(=O)O[C@H](C)C/C=C/C=C/[C@H](O[C@H]2CC[C@H](N(C)C)[C@@H](C)O2)[C@H](C)C[C@H](CC=O)[C@H](O[C@@H]2O[C@H](C)[C@@H](O[C@H]3C[C@@](C)(O)[C@@H](OC(=O)CC(C)C)[C@H](C)O3)[C@H](N(C)C)[C@H]2O)[C@H]1OC [Isovaleryl spiramycin III] | all have antibiotic activities
2 | CO[C@@H]1[C@@H](O[C@@H]2O[C@H](C)[C@@H](O[C@H]3C[C@@](C)(O)[C@@H](OC(=O)CC(C)C)[C@H](C)O3)[C@H](N(C)C)[C@H]2O)[C@@H](CC=O)C[C@@H](C)[C@@H](O[C@H]2CC[C@H](N(C)C)[C@@H](C)O2)/C=C/C=C/C[C@@H](C)OC(=O)C[C@H]1O [Isovaleryl spiramycin I] | all have antibiotic activities
3 | Isovaleryl spiramycin II | all have antibiotic activities
